For this assay, the target named is T1, Dipeptidyl peptidase-4 (DPP-4) (Homo sapiens, UniProt P27487).
T1 construct: gene DPP4; recombinant DPP-4 (human)
Nature of the assay: colorimetric enzyme assay with recombinant human DPP-4, gly-pro p-nitroanilide substrate, absorbance […] nm. It is filed as biochemical.

T1 sequence (P27487 39-766): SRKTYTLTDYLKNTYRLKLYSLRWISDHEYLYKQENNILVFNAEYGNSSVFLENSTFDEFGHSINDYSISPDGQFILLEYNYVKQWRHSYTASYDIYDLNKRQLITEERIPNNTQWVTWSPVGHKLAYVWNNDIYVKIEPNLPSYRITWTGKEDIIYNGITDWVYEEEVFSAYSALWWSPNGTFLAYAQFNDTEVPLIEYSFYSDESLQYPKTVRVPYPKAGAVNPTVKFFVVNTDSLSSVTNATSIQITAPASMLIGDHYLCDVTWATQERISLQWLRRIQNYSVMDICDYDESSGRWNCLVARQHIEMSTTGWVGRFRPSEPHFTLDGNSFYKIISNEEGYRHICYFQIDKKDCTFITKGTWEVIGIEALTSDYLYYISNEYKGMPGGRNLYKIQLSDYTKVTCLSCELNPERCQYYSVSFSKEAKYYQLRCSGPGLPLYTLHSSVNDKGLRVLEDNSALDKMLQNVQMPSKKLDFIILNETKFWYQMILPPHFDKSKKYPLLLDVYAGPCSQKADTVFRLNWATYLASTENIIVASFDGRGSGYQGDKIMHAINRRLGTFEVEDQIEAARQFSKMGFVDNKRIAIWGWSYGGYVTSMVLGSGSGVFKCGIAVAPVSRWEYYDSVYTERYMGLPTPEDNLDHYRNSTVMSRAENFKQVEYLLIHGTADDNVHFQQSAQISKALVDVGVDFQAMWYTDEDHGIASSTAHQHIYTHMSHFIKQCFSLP

As a reminder, the IC50 is the midpoint of a concentration-inhibition curve. For the molecule `O=c1c(O)c(-c2cc(O)c(O)c(O)c2)oc2cc(O)cc(O)c12` [myricetin], the IC50 came out at 4.8 ± 0.36 µM.
